Test systems include 786-0; CCRF-CEM; DU-145; EKVX; HCT-15; K562; KM12; MDA-MB-435; NCI-H23; NCI-H460; OVCAR-4; OVCAR-5; OVCAR-8; RPMI-8226; SF-295; SK-MEL-2; SK-MEL-5; SN12C; TK-10; HCC 2998.
What all share (test): NCI tumour cell line growth inhibition, 48 h

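Dose response: 5 concentrations. Exposure: 48 h. Format: 96-well plates. Endpoint: linear interpolation; highest concentration if not reached. Here, GI50 denotes the concentration required for 50% inhibition of growth.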 Calls of active or inactive are those of the source. No stated cut-off is given here; in the data, active = GI50 up to about 1.1 µM and inactive = higher.

As to `O=C(O)c1ccc(OCc2ccccc2)c(Cl)c1`, the GI50 with 786-0 was > 100 µM (inactive); in the experiment with CCRF-CEM it was > 100 µM (inactive); with DU-145, > 100 µM (inactive); with EKVX, > 100 µM (inactive); in the experiment on HCT-15, above 100 µM; with K562, > 100 µM (inactive). Further, the GI50 in the experiment with KM12 is 30.3 µM (inactive); with MDA-MB-435, 80.5 µM (inactive); in the experiment with NCI-H23 it was > 100 µM (inactive); with NCI-H460 it was > 100 µM (inactive); with OVCAR-4, 14 µM (inactive); in the experiment with OVCAR-5, > 100 µM (inactive). For the same compound, the GI50 in the experiment on OVCAR-8, in the experiment on RPMI-8226, in the experiment with SF-295, in the experiment on SK-MEL-2, in the experiment with SK-MEL-5 and in the experiment with SN12C was > 100 µM (inactive) in each case. For the same compound, the GI50 in the experiment on TK-10 was > 100 µM (inactive).
Turning to `C#CCn1c(=O)c(C)cn(/C(=C\C(=O)OCC)C(=O)OCC)c1=O`, the GI50 in the experiment with 786-0 was 2.82 µM (inactive); with CCRF-CEM it was 0.435 µM (active); in the experiment with DU-145 it was 16.1 µM (inactive); in the experiment with EKVX, 6.43 µM (inactive); in the experiment on HCT-15 it was 1.58 µM; in the experiment with K562, 2.63 µM (inactive). Also, the GI50 in the experiment with KM12 was 30.1 µM (inactive); in the experiment on MDA-MB-435, 5.16 µM (inactive); in the experiment with NCI-H23, 12.6 µM (inactive); in the experiment with NCI-H460 it was 2.2 µM (inactive); with OVCAR-4, 2.69 µM (inactive); in the experiment with OVCAR-5, 7.06 µM (inactive). Besides, the GI50 in the experiment with OVCAR-8 was 3.05 µM (inactive); in the experiment with RPMI-8226, 2.8 µM (inactive); in the experiment on SF-295 it was 19.5 µM (inactive); in the experiment on SK-MEL-2 it was 16.2 µM (inactive); in the experiment on SK-MEL-5, 22.3 µM (inactive); in the experiment with SN12C it was 6.3 µM (inactive). Also, in the experiment with TK-10, the GI50 is 1.77 µM (inactive).
Turning to `O=C1CCCCCCCCCCC1CN1CCCC1` (stereo unspecified), the GI50 with 786-0 is 20.4 µM (inactive); with CCRF-CEM, 27.4 µM (inactive); with DU-145 it was 29.9 µM (inactive); in the experiment on HCC 2998 it was 20 µM (inactive); in the experiment on HCT-15, 32.8 µM; with K562 it was 53.8 µM (inactive). In addition, the GI50 in the experiment on KM12 is 25.6 µM (inactive); in the experiment on MDA-MB-435 it was 36.1 µM (inactive); with NCI-H23 it was 36.1 µM (inactive); with NCI-H460 it was 26.9 µM (inactive); in the experiment with OVCAR-5, 22.3 µM (inactive); with OVCAR-8 it was 45.4 µM (inactive). For the same compound, the GI50 is > 100 µM (inactive) in the experiment on RPMI-8226; 29.9 µM (inactive) in the experiment with SF-295; 17.9 µM (inactive) with SK-MEL-2; 17.6 µM (inactive) in the experiment on SK-MEL-5; 41.1 µM (inactive) in the experiment with SN12C; 32.3 µM (inactive) in the experiment on TK-10.
On to `COc1ccc(C(=O)C(Br)C(Br)C(=O)O)cc1` (stereo unspecified), for which the GI50 with 786-0 is 31.8 µM (inactive); in the experiment with DU-145, 80.2 µM (inactive); in the experiment on EKVX, 53.6 µM (inactive); with HCT-15, 37.5 µM; with K562, 29 µM (inactive); with KM12, 52.1 µM (inactive). In addition, the GI50 in the experiment with MDA-MB-435 was 36.1 µM (inactive); in the experiment on NCI-H23, 39.4 µM (inactive); in the experiment on NCI-H460 it was 36.3 µM (inactive); with OVCAR-4, 53 µM (inactive); with OVCAR-5, 32.7 µM (inactive); in the experiment on OVCAR-8, 32.7 µM (inactive). For the same compound, the GI50 with RPMI-8226 was 20.4 µM (inactive); in the experiment with SF-295 it was > 100 µM (inactive); with SK-MEL-2, 39 µM (inactive); in the experiment on SK-MEL-5 it was > 100 µM (inactive); in the experiment on SN12C it was 47.2 µM (inactive); in the experiment on TK-10, 90.2 µM (inactive).
As to `O=Cc1c(C(=O)O)[nH]c(=O)[nH]c1=O`, the GI50 with 786-0 is > 100 µM (inactive); in the experiment with CCRF-CEM, > 100 µM (inactive); with DU-145, > 100 µM (inactive); with EKVX, > 100 µM (inactive); in the experiment with HCT-15, above 100 µM; in the experiment on K562, > 100 µM (inactive). Besides, the GI50 is > 100 µM (inactive) with KM12; > 100 µM (inactive) in the experiment on MDA-MB-435; > 100 µM (inactive) with NCI-H23; > 100 µM (inactive) with NCI-H460; 39.8 µM (inactive) in the experiment with OVCAR-5; > 100 µM (inactive) in the experiment on OVCAR-8. Also, the GI50 in the experiment with RPMI-8226 was > 100 µM (inactive); in the experiment on SF-295, > 100 µM (inactive); with SK-MEL-2 it was > 100 µM (inactive); with SK-MEL-5, 98.6 µM (inactive); in the experiment on SN12C, > 100 µM (inactive); in the experiment with TK-10, > 100 µM (inactive).
As to `Cc1ccc(-c2cc(-c3ccc(Cl)cc3)nc(/N=C3\C(=O)N(CN4CCCCC4)c4ccc(Cl)cc43)n2)cc1`, the GI50 with 786-0 was 18.9 µM (inactive); in the experiment on CCRF-CEM, 36.3 µM (inactive); in the experiment with DU-145 it was 37.5 µM (inactive); in the experiment on EKVX it was 77.8 µM (inactive); in the experiment with HCC 2998, 14.9 µM (inactive); with HCT-15 it was 24.4 µM. The GI50 in the experiment with K562 is 19.9 µM (inactive); with KM12, 15.8 µM (inactive); in the experiment with MDA-MB-435 it was 20.3 µM (inactive); in the experiment with NCI-H23 it was 19.1 µM (inactive); with NCI-H460, 22.5 µM (inactive); with OVCAR-4 it was 31.5 µM (inactive). Further, the GI50 in the experiment with OVCAR-5 was 38.2 µM (inactive); with OVCAR-8 it was 18.5 µM (inactive); with SF-295, 42.2 µM (inactive); with SK-MEL-2 it was 18.2 µM (inactive); in the experiment on SK-MEL-5, 19.8 µM (inactive); in the experiment with SN12C it was 25.9 µM (inactive). In the experiment with TK-10, the GI50 was 21.7 µM (inactive).
As to `O=C(N/N=C/c1ccc(Cl)cc1)c1c(Cl)c(Cl)c(Cl)c(Cl)c1-c1nc2ccccc2[nH]1`, the GI50 is 28.6 µM (inactive) in the experiment with 786-0; 50.4 µM (inactive) in the experiment on CCRF-CEM; > 100 µM (inactive) in the experiment on DU-145; 16.9 µM (inactive) in the experiment on EKVX; 5.5 µM (inactive) in the experiment on HCC 2998; 64.1 µM with HCT-15. Also, the GI50 was 47.9 µM (inactive) in the experiment with K562; 8.36 µM (inactive) in the experiment with KM12; 74.3 µM (inactive) in the experiment with MDA-MB-435; > 100 µM (inactive) in the experiment with NCI-H23; 30 µM (inactive) in the experiment with NCI-H460; > 100 µM (inactive) with OVCAR-5. The GI50 was 22.2 µM (inactive) with RPMI-8226; 0.0405 µM (active) in the experiment with SF-295; 93.1 µM (inactive) in the experiment on SK-MEL-2; 49 µM (inactive) in the experiment with SK-MEL-5; > 100 µM (inactive) in the experiment on SN12C.
For `CCN(CC)C1=Nc2ccccc2-n2ccnc2C1`, the GI50 is > 100 µM (inactive) in the experiment on 786-0; > 100 µM (inactive) in the experiment with CCRF-CEM; > 100 µM (inactive) with DU-145; > 100 µM (inactive) in the experiment with EKVX; > 100 µM (inactive) in the experiment with HCC 2998; above 100 µM with HCT-15. The GI50 in the experiment with K562 was > 100 µM (inactive); in the experiment on KM12, > 100 µM (inactive); with MDA-MB-435 it was > 100 µM (inactive); in the experiment on NCI-H23, > 100 µM (inactive); in the experiment with NCI-H460, 95.1 µM (inactive); in the experiment on OVCAR-4, > 100 µM (inactive). For the same compound, the GI50 with OVCAR-5, in the experiment with OVCAR-8, with SF-295, with SK-MEL-2, with SK-MEL-5 and with SN12C was > 100 µM (inactive) in each case. Also, the GI50 with TK-10 was > 100 µM (inactive).
Consider `Cc1nc2c(c(N3CCN(C)CC3)n1)Cc1ccccc1-2`, for which the GI50 in the experiment with 786-0 was 68.2 µM (inactive); with CCRF-CEM it was 65.2 µM (inactive); in the experiment with DU-145, > 100 µM (inactive); with EKVX it was 42.4 µM (inactive); in the experiment on HCT-15, 32.5 µM; with K562, 34.6 µM (inactive). The GI50 is 48 µM (inactive) in the experiment with KM12; 64.7 µM (inactive) in the experiment with MDA-MB-435; 57.8 µM (inactive) in the experiment on NCI-H23; 18.8 µM (inactive) with NCI-H460; 80.7 µM (inactive) with OVCAR-5; 54 µM (inactive) in the experiment with OVCAR-8. In addition, the GI50 is > 100 µM (inactive) in the experiment on RPMI-8226; 42.4 µM (inactive) with SF-295; 75.5 µM (inactive) in the experiment on SK-MEL-2; 51.2 µM (inactive) in the experiment with SK-MEL-5; 31.4 µM (inactive) with TK-10.
As to `Cc1ccccc1/N=N/c1cc(C)c(/N=N/c2c(O)ccc3ccccc23)cc1C`, the GI50 in the experiment on 786-0 is > 100 µM (inactive); with CCRF-CEM, > 100 µM (inactive); with DU-145, > 100 µM (inactive); in the experiment on EKVX it was > 100 µM (inactive); in the experiment on HCT-15, above 100 µM; in the experiment on K562 it was > 100 µM (inactive). The GI50 with KM12, in the experiment with MDA-MB-435, in the experiment on NCI-H23, in the experiment with OVCAR-4, in the experiment on OVCAR-5 and in the experiment on OVCAR-8 was > 100 µM (inactive) throughout. Further, the GI50 with RPMI-8226, in the experiment on SF-295, in the experiment with SK-MEL-2, with SK-MEL-5, in the experiment with SN12C and with TK-10 was > 100 µM (inactive) each time.
`Cc1ccc(-c2n[nH]c(CC#N)n2)cc1`: the GI50 with 786-0 is > 100 µM (inactive); with CCRF-CEM, > 100 µM (inactive); in the experiment on DU-145, > 100 µM (inactive); in the experiment on EKVX, 8.57 µM (inactive); in the experiment with HCC 2998, > 100 µM (inactive); in the experiment with HCT-15, 66.1 µM. Moreover, the GI50 in the experiment with K562, in the experiment on KM12, in the experiment on MDA-MB-435, in the experiment on NCI-H23, in the experiment on NCI-H460 and in the experiment on OVCAR-4 was > 100 µM (inactive) throughout. Besides, the GI50 in the experiment with OVCAR-5, in the experiment on OVCAR-8, with SF-295, in the experiment with SK-MEL-2, in the experiment with SK-MEL-5 and in the experiment on SN12C was > 100 µM (inactive) each time. In the experiment on TK-10, the GI50 is > 100 µM (inactive).

(Values after ChEMBL document CHEMBL1201862, “PubChem BioAssay data set” (2004).)
